{"source": "paper PMC4894409", "about": "(Scientific Reports, 2015)", "key": {"mice [1]": {"tested_on": "mice", "test": "Forced swimming (FS) test", "type": "in vivo, Male Swiss mice", "conditions": "5 or 10 mg/kg p.o., vs vehicle, p < 0.05", "procedure": "(§1) Male Swiss mice (weighing between 25–30 g; 6–8 weeks old), provided by Central Animal House of the Federal University of Goiás, were used in all behavioural models. The experimental animals were kept in an intra-laboratory facility cage (32 × 18 × 16 cm) under controlled environmental conditions (23 ± 1 °C, 12 hr light-dark cycle) with access to food and water ad libitum. The experimental protocols (number 104/08) were approved by Ethical Committee of Federal University of Goiás in accordance to the international laws on the care and use of laboratory animals.\nIn the FS model, mice were randomly divided into 5 groups [control (vehicle), 3 different doses of OAD and IMI]. Mice were exposed to a modified version of FS test[48] after oral administration of vehicle, OAD (5, 10 or 20 mg/kg) or IMI 15 mg/kg. FS apparatus is a cylindrical water container (42 cm in height, 18 cm in diameter) filled with water up to 30 cm (total volume ( [drawing 1] of 7635.06 cm^3 at 24 ± 2 °C). In this model, the initial escape-directed behaviour like swimming and climbing by mouse are generally followed with a relatively passive and immobile posture. The container was cleaned with 10% ethanol solution prior to the exposure of naïve mouse. This test session (6-min duration) was videotaped and the swimming and immobility time was later scored and analyzed."}, "mice [2]": {"tested_on": "mice", "conditions": "mouse, in vivo; for behavioural observation: male, Swiss", "procedure": "A modified method that was adopted by Malone[57] was used in the present study to evaluate general pharmacological alterations in mice following administration of D1. This test permits the observation of behavioural change, report of possible toxic effect or death occurrence in addition to variations in pharmacological responses to different route of drug administrations. Group of animals were subjected to s.c, i.p, or p.o route of D1 administrations at the doses of 2, 10, 50 or 250 mg/kg or vehicle 10 mL/kg and observed for 7 days."}, "recombinant human MAO-A": {"molecular_target": "T1, recombinant human MAO-A (Homo sapiens, UniProt P21397)", "T1 construct": "purchased BD Biosciences Bedford, MA, USA", "T1 sequence (P21397 1-527)": "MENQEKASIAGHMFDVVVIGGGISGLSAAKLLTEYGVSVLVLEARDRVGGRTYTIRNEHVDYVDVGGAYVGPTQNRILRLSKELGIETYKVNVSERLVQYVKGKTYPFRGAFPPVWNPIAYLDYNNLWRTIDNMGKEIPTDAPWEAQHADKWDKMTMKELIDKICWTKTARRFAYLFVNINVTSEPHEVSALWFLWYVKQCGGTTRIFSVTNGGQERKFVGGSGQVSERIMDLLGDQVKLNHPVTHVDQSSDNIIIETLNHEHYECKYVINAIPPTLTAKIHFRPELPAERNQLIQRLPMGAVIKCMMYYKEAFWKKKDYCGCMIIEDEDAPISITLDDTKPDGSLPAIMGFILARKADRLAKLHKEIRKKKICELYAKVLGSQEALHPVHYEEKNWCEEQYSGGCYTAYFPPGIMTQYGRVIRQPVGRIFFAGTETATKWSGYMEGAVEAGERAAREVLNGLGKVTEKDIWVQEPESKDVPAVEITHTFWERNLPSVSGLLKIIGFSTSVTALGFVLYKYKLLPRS", "test": "Kynuramine deamination inhibition assay, MAO-A", "type": "biochemical", "conditions": "80 μM kynuramine, pH 7.4, 37 °C", "procedure": "(§2) The assay was performed with the addition of inhibitor. Inhibition was calculated as percent of product formation compared to the corresponding control (enzyme-substrate reaction) without the inhibitors. The reactions were carried out in 0.1 M potassium phosphate buffer at pH 7.4. […] The compounds were dissolved in DMSO. The total reaction volume was 200 μL yielding a final DMSO concentration of 1.0% in the reaction mixture."}, "recombinant human MAO-B": {"molecular_target": "T2, recombinant human MAO-B (Homo sapiens, UniProt P27338)", "T2 construct": "purchased BD Biosciences Bedford, MA, USA", "T2 sequence (P27338 1-520)": "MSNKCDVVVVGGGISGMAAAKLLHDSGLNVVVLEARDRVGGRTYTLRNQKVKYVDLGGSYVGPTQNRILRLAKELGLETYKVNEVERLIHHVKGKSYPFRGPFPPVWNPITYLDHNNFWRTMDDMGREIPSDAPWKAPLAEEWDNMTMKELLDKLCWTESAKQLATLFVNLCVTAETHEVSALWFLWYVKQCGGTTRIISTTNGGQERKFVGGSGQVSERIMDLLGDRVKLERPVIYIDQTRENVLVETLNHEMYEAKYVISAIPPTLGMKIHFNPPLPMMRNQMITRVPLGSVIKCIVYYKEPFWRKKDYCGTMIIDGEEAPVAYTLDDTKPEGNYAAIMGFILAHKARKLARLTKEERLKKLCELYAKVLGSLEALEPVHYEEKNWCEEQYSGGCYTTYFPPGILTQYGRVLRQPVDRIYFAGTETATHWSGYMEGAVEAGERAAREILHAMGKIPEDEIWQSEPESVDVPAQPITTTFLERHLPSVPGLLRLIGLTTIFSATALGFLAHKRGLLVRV", "test": "Kynuramine deamination inhibition assay, MAO-B", "type": "biochemical", "conditions": "50 μM kynuramine, pH 7.4, 37 °C", "procedure": "as §2"}, "mice [3]": {"tested_on": "mice", "test": "Open field (OF) test", "type": "in vivo, Male Swiss mice", "procedure": "as §1\nIn the OF, animals were randomly divided into six groups [control (vehicle), 3 different doses of OAD, DZP 1 or 5 mg/kg]. Animals were treated with vehicle, OAD (5, 10 or 20 mg/kg, p.o), DZP (1 or 5 mg/kg, p.o) as described in our previous work[7][49], and placed in a circular open field [base area ( [drawing 2] ) = 62.80 cm^2 which is divided into 8 equal sectors enclosed in a 50 cm high wooden wall]. The test session (5-min duration) was videotaped in a sound-proof experimental room. Parameters like total crossing, freezing time, number of grooming and rearing activity, crossing at the centre and time spent at the centre of the open field were observed and scored."}}, "note": "Like-named read-outs stand apart in the source and are kept apart here.", "data": [{"smiles": "C=CC(=O)O[C@H]1CC[C@]2(C)[C@H]3CC=C4[C@@H]5CC(C)(C)CC[C@]5(C(=O)O)CC[C@@]4(C)[C@]3(C)CC[C@H]2C1(C)C", "note": "[D1, Oleanolic acid acrylate]", "values": [{"measurement": "immobility time in the FS test", "setting": "mice [1]", "result": "reduction"}, {"measurement": "swimming time in the FS test", "setting": "mice [1]", "result": "significant increase"}, {"measurement": "behavioural observation", "setting": "mice [2]", "result": "Total recovery from the effects of D1 without any sign of toxicity, weight gain or death occurence"}, {"measurement": "behavioural observation", "setting": "mice [2]; 50 mg/kg, 1 hr", "result": "Effects after 30 min of administrations persisted"}, {"measurement": "behavioural observation", "setting": "mice [2]; 250 mg/kg, 1 hr", "result": "Effects after 30 min of administrations persisted"}, {"measurement": "behavioural observation (text)", "setting": "mice [2]; 250 mg/kg", "result": "reduction in exploratory activity"}, {"measurement": "IC50", "setting": "recombinant human MAO-A", "result": "48.8 ± 1.94", "unit": "µM"}, {"measurement": "IC50", "setting": "recombinant human MAO-B", "result": "> 100", "unit": "µM"}, {"measurement": "crossing at the centre of the OF", "setting": "mice [3]; 10 mg/kg p.o., vs vehicle", "result": "increase"}, {"measurement": "freezing time in the OF", "setting": "mice [3]; 20 mg/kg p.o., vs vehicle", "result": "increase"}, {"measurement": "other parameters of the OF test", "setting": "mice [3]; 5, 10, 20 mg/kg p.o., parameters not named as changed, p > 0.05", "result": "not altered"}, {"measurement": "time spent at the centre of the OF", "setting": "mice [3]; 10 and 20 mg/kg p.o., vs vehicle", "result": "increase"}]}]}
